From article PMC3610419, “A Randomized, Double-Blind Placebo Controlled Trial of Balapiravir, a Polymerase Inhibitor, in Adult Dengue Patients” (The Journal of Infectious Diseases, 2012)
Entries after “also recorded” stand apart in the source; their conditions may differ.

What was measured:
[1] = system: DENV-1; experiment: Inhibition of DENV replication in Huh-7 cells, viral RNA by quantitative real time PCR; format: cell-based, dengue virus; details: Dengue virus, DENV1, Huh-7, 48 h, mean ± SD of 3 experiments
Method: (§1) ^a Each experiment was done in duplicate. The mean and standard deviation shown represent 3 independent (different date) experiments for each virus tested. Huh-7 cells were plated in 96-well plate at 10,000 cells/well in DMEM containing 10 % FBS in 100 μl volume one day prior to set up of the assay. The following day the medium was aspirated off and diluted virus at a multiplicity of infection of 0.5 or media was added to the assay and control wells, respectively. The virus was allowed to attach to the cells for two hours at 37°C in a humidified 5% C02 atmosphere while the dilutions of the test molecule were prepared. Test molecules (or medium as a control) were added after aspiration of the virus-containing media 2 hours post-infection in 3-fold dilutions at a final DMSO concentration of 1%. After 48 hrs, cells were washed and cellular RNA were isolated. In this study, we used a quantitative real time PCR method to quantitate dengue viral RNA in Huh-7 in the presence of inhibitors. Viral RNA and endogenous 18S rRNA control (Applied Bio System) was quantified by a real time PCR assay using the following primers. Dengue Reverse (Common to all the serotypes): 5’-[…]-3’, Dengue forward serotype 1: 5’-[…]-3’, Dengue forward serotype 2 or 3: 5’-[…]-3’, Dengue forward serotype 4: 5’-[…] -3’ and Dengue probe (Common to all the serotypes): 5'-/56-FAM/[…]/3BHQ_1/-3'. Taqman was performed in duplicate. IC50 was obtained using the following calculations. First ΔCt was calculated by subtracting 18S rRNA CT value from dengue RNA CT value. ΔCts from duplicate taqman assay were averaged. Then ΔΔCt was obtained by subtracting the average ΔCt of non-treated sample from the treated sample average ΔCt. Relative quantification was calculated using the following formula. Relative quantification = 2^-averageΔΔCT. The 50% inhibitory concentrations (EC50) were calculated using the sigmoidal dose-response model in Microsoft XLfit.

[2] = system: DENV-3; experiment: as above; format: cell-based, dengue virus; details: Dengue virus, DENV3, Huh-7, 48 h, mean ± SD of 3 experiments
Method: as §1

[3] = system: DENV-2; experiment: as above; format: cell-based, dengue virus; details: Dengue virus, DENV2, Huh-7, 48 h, mean ± SD of 3 experiments
Method: as §1

[4] = system: DENV-4; experiment: as above; format: cell-based, dengue virus; details: Dengue virus, DENV4, Huh-7, 48 h, mean ± SD of 3 experiments
Method: as §1

[5] = Host immune response (plasma cytokines, whole blood transcripts) and virus sequence diversity in adult dengue patients; format: in vivo, human
Method: Plasma samples were collected for virological and immunological investigations every 12 hours, beginning immediately before commencement of treatment, during the next 6 study days and on one occasion on study day 7 and day 14 (virological markers) or day 7 and day 28 (immunological markers). Viremia was measured using a validated, internally controlled reverse-transcription polymerase chain reaction assay in a Good Clinical Laboratory Practice environment. The limit of detection was 357 copies/mL for DENV-1, 72 copies/mL for DENV-2, 357 copies/mL for DENV-3, and 720 copies/mL for DENV-4. The presence of NS1 in plasma was determined using the Platelia NS1 assay (Bio-Rad) and was performed according to the manufacturer's instructions. Plasma cytokine levels (interleukin 1β [IL-1β], IL-2, IL-4, IL-5, IL-6, IL-10, IL-12p70, IL-13, interferon γ [IFN-γ], and tumor necrosis factor α [TNF-α]) were measured using a Bio-Plex human cytokine assay (Bio-Rad) and a multiplex array reader (Luminex Systems, Bio-Plex workstation from Bio-Rad Laboratories) according to the manufacturer's instructions. Briefly, 50-μL plasma samples were incubated with monoclonal antibody coupled beads. […] Cytokine concentrations in samples were calculated by use of recombinant cytokines as standards and software provided by the manufacturer (Bio-Plex Manager). […]

[6] = 4500 mg twice daily of balapiravir, HCV-infected persons, cited from earlier work
[7] = system: HCV; details: cited from earlier work
[8] = system: DENV; experiment: Plasma viremia (RT-PCR) in adult dengue patients, randomized placebo-controlled trial; format: in vivo, human; details: for Median time to first viremia level of <1000 copies/mL (IQR): Kaplan-Meier estimate, inpatient period; for AUC viremia, Mean / AUC viremia, Median (IQR): hour 0 to hour 168
Method: Plasma samples were collected for virological and immunological investigations every 12 hours, beginning immediately before commencement of treatment, during the next 6 study days and on one occasion on study day 7 and day 14 (virological markers) or day 7 and day 28 (immunological markers). Viremia was measured using a validated, internally controlled reverse-transcription polymerase chain reaction assay in a Good Clinical Laboratory Practice environment. The limit of detection was 357 copies/mL for DENV-1, 72 copies/mL for DENV-2, 357 copies/mL for DENV-3, and 720 copies/mL for DENV-4. The presence of NS1 in plasma was determined using the Platelia NS1 assay (Bio-Rad) and was performed according to the manufacturer's instructions. Plasma cytokine levels (interleukin 1β [IL-1β], IL-2, IL-4, IL-5, IL-6, IL-10, IL-12p70, IL-13, interferon γ [IFN-γ], and tumor necrosis factor α [TNF-α]) were measured using a Bio-Plex human cytokine assay (Bio-Rad) and a multiplex array reader (Luminex Systems, Bio-Plex workstation from Bio-Rad Laboratories) according to the manufacturer's instructions. Briefly, 50-μL plasma samples were incubated with monoclonal antibody coupled beads. Complexes were washed twice, then incubated with biotinylated detection antibodies and, finally, labeled with streptavidin-phycoerythrin prior to analysis. Cytokine concentrations in samples were calculated by use of recombinant cytokines as standards and software provided by the manufacturer (Bio-Plex Manager). All research samples (for pharmacology, virology, and immunology) were collected and processed in the laboratory within 1 hour of venupuncture. All virological and immunological measurements and analyses were performed by analysts who were blind to the treatment assignment
Key viremia endpoints of the study were as follows: area under the log-transformed viremia curve (AUC) from first dose to the end of study day 7 (study hour 168), calculated on the basis of the trapezoidal rule with values below the limit of detection replaced by half of the detection limit; time to first viremia level of <1000 copies/mL until study day 7; and time to the first negative NS1 test result. Other predefined key endpoints included fever clearance time, defined as the time from the start of treatment to the start of the first 48-hour period during which axillary temperature remained <37.5°C; maximum hematocrit level; maximum percentage increase of hematocrit level from baseline; platelet count nadir; and lowest recorded quality of life score.
Time to event endpoints were compared between treatment groups on the basis of Cox regression and continuous endpoints on the basis of linear regression. Analyses were adjusted for the predose value of the respective endpoint; viremia and NS1 endpoints were additionally adjusted for dengue serotype. For all endpoints, we report P values of a trend test for a dose-response relationship with treatment entered as a continuous variable with values 0 (placebo), 1 (low-dose), and 2 (high-dose) into the regression model.

[9] = High-dose (3000 mg twice a day, 5 days), n = 22
[10] = Low-dose (1500 mg twice a day, 5 days), n = 10

SMILES: CC(C)C(=O)OC[C@@]1(N=[N+]=[N-])O[C@@H](n2ccc(N)nc2=O)[C@H](OC(=O)C(C)C)[C@@H]1OC(=O)C(C)C [Balapiravir]
- IC50 ([1]; DENV-1 strain FR28 (clinical isolate)): 6.8 ± 1.1 µM
- IC50 ([1]; DENV-1 strain FR34 (clinical isolate)): 7 ± 2 µM
- IC50 ([1]; DENV-1 strain FR37 (clinical isolate)): 7.2 ± 2 µM
- IC50 ([1]; DENV-1 strain FR42 (clinical isolate)): 7.4 ± 2.3 µM
- IC50 ([1]; DENV-1 strain Thsman): 8.8 ± 1.2 µM
- IC50 ([2]; DENV-3 strain 33/0072 (clinical isolate), Huh-7 cells): 3 ± 0.4 µM
- IC50 ([2]; DENV-3 strain 33/0096 (clinical isolate), Huh-7 cells): 3.4 ± 1.7 µM
- IC50 ([2]; DENV-3 strain 33/0177 (clinical isolate), Huh-7 cells): 3.2 ± 0.9 µM
- IC50 ([2]; DENV-3 strain 33/0253 (clinical isolate), Huh-7 cells): 4.4 ± 0.9 µM
- IC50 ([2]; DENV-3 strain H87, Huh-7 cells): 3.7 ± 0.9 µM
- IC50 ([3]; DENV-2 strain 32/0102 (clinical isolate), Huh-7 cells): 3 ± 0.5 µM
- IC50 ([3]; DENV-2 strain 32/0140 (clinical isolate), Huh-7 cells): 1.9 ± 0.7 µM
- IC50 ([3]; DENV-2 strain 33/0051 (clinical isolate), Huh-7 cells): 2 ± 0.2 µM
- IC50 ([3]; DENV-2 strain 33/0178 (clinical isolate), Huh-7 cells): 2 ± 0.6 µM
- IC50 ([3]; DENV-2 strain Th36, Huh-7 cells): 4.6 ± 0.4 µM
- IC50 ([4]; DENV-4 strain H241, Huh-7 cells): 11 ± 1 µM
- IC50 ([4]; DENV-4 strain Phili/1567, Huh-7 cells): 2 ± 0.4 µM
- IC50 ([4]; DENV-4 strain Senga/DA, Huh-7 cells): 6.5 ± 0.9 µM
- IC50 ([4]; DENV-4 strain Venz/JQ, Huh-7 cells): 5.5 ± 1.3 µM
- kinetics of plasma cytokine concentrations and whole blood transcriptional profile ([5]; balapiravir treatment versus placebo): not attenuated
- treatment-related effects on whole blood gene transcript abundance ([5]; baseline, study days 4 and 28, data not shown): no evidence of treatment-related effects
- mean Cmin [6]: 21 µM
- Cmax ([6]; read-out: mean Cmax): 88 µM
- antiviral effect (reduction in plasma HCV RNA level) ([7]; 500 mg twice daily): no significant antiviral effect
- clinical safety in extended courses ([7]; extended courses (2–3 months) in conjunction with pegylated interferon and ribavirin, HCV infection): clinical safety signals were detected
- effect on plasma HCV levels ([7]; monotherapy twice per day for 14 days, chronic HCV): reduced plasma HCV levels in a dose- and time-dependent manner
- tolerability ([7]; monotherapy twice per day for 14 days, doses up to 3000 mg, adult male patients): well-tolerated
- effect on virological markers (time to clearance of viremia, time to clearance of NS1 antigenemia, AUC) ([8]; 1500 mg or 3000 mg twice daily for 5 days versus placebo): did not measurably alter; also recorded: no measurable effect
- Median time to first viremia level of <1000 copies/mL (IQR) [8, 9]: 4 (3–5) d
- AUC viremia, Mean [8, 9]: 32.56 log10 copies/mL × d
- AUC viremia, Median (IQR) [8, 9]: 31.98 (27.60–34.98) log10 copies/mL × d
- Median time to first viremia level of <1000 copies/mL (IQR) [8, 10]: 5 (4, NA) d
- AUC viremia, Mean [8, 10]: 34.49 log10 copies/mL × d
- AUC viremia, Median (IQR) [8, 10]: 29.63 (27.41–39.86) log10 copies/mL × d
